pEC50: −log10 of the molar value.
Target: human APJ receptor (Homo sapiens (Human), UniProt P35414)
Test: Intracellular cAMP accumulation assay (APJ hcAMP, HTRF)
Type: cell-based
Conditions: HEK293 cells stably expressing human APJ receptor; inhibition of forskolin-mediated cAMP production; read-out: Human APJ cAMP EC50 Potency range
Procedure, shortened: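 HEK293 cells stably expressing human APJ, 5,000 per well, incubated 30 min at rt with compound, […] and 2 μM forskolin. cAMP measured by HTRF against a cAMP standard curve as inhibition of forskolin-driven production. EC50 from variable-slope sigmoidal fit.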

Chain of human APJ receptor (P35414 whole entry): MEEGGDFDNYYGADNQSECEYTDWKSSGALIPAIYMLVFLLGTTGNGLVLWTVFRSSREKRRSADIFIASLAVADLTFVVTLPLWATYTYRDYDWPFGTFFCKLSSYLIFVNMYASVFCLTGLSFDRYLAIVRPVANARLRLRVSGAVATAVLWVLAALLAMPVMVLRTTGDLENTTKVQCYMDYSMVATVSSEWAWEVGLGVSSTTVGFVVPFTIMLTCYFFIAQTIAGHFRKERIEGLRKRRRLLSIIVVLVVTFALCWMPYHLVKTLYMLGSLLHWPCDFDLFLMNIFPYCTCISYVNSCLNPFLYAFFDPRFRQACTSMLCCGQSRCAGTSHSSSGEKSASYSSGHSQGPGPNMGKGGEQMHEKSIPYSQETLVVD

SMILES | pEC50
COC[C@@H](c1cc(F)cc(F)c1)n1c(COC(C)C)nc(=O)c(S(=O)(=O)c2ccc(-c3ccnc(F)c3C)cc2)c1O [Example 378, 1-[(1R)-1-(3,5-difluorophenyl)-2-methoxyethyl]-5-[4-(2-fluoro-3-methylpyridin-4-yl)benzenesulfonyl]-6-hydroxy-2-[(propan-2-yloxy)methyl]-1,4-dihydropyrimidin-4-one] | 8.00 to 11.00
COC[C@@H](c1cc(F)cc(F)c1)n1c(COC(C)C)nc(=O)c(S(=O)(=O)c2ccc(-c3cccnc3C)cc2)c1O [Example 379, 1-[(1R)-1-(3,5-difluorophenyl)-2-methoxyethyl]-6-hydroxy-5-[4-(2-methylpyridin-3-yl)benzenesulfonyl]-2-[(propan-2-yloxy)methyl]-1,4-dihydropyrimidin-4-one] | 8.00 to 11.00
COC[C@@H](c1cc(F)cc(F)c1)n1c(COC(C)C)nc(=O)c(S(=O)(=O)c2ccc(-c3ccc(F)nc3C)cc2)c1O [Example 380, 1-[(1R)-1-(3,5-difluorophenyl)-2-methoxyethyl]-5-[4-(6-fluoro-2-methylpyridin-3-yl)benzenesulfonyl]-6-hydroxy-2-[(propan-2-yloxy)methyl]-1,4-dihydropyrimidin-4-one] | 8.00 to 11.00
CC[C@@H](c1cccc(C#N)c1)n1c(COC(C)C)nc(=O)c(S(=O)(=O)c2ccc(-c3ccnc(F)c3C)cc2)c1O [Example 381, 3-[(1S)-1-{5-[4-(2-fluoro-3-methylpyridin-4-yl)benzenesulfonyl]-6-hydroxy-4-oxo-2-[(propan-2-yloxy)methyl]-1,4-dihydropyrimidin-1-yl}propyl]benzonitrile] | 8.00 to 11.00
CC[C@@H](c1cccc(C#N)c1)n1c(COC(C)C)nc(=O)c(S(=O)(=O)c2ccc(-c3ccc(F)nc3C)cc2)c1O [Example 382, 3-[(1S)-1-{5-[4-(6-fluoro-2-methylpyridin-3-yl)benzenesulfonyl]-6-hydroxy-4-oxo-2-[(propan-2-yloxy)methyl]-1,4-dihydropyrimidin-1-yl}propyl]benzonitrile] | 8.00 to 11.00
CC[C@@H](c1cccc(C#N)c1)n1c(COC(C)C)nc(=O)c(S(=O)(=O)c2ccc(-c3ccncc3C)cc2)c1O [Example 383, 3-[(1S)-1-{6-hydroxy-5-[4-(3-methylpyridin-4-yl)benzenesulfonyl]-4-oxo-2-[(propan-2-yloxy)methyl]-1,4-dihydropyrimidin-1-yl}propyl]benzonitrile] | 8.00 to 11.00
CC[C@@H](c1cccc(C#N)c1)n1c(COC(C)C)nc(=O)c(S(=O)(=O)c2ccc(-c3cccnc3C)cc2)c1O [Example 384, 3-[(1S)-1-{6-hydroxy-5-[4-(2-methylpyridin-3-yl)benzenesulfonyl]-4-oxo-2-[(propan-2-yloxy)methyl]-1,4-dihydropyrimidin-1-yl}propyl]benzonitrile] | 8.00 to 11.00
CCOCc1nc(=O)c(S(=O)(=O)c2ccc(-c3ccc(F)nc3C)cc2)c(O)n1[C@@H](COC)c1cc(F)cc(F)c1 [Example 385, 1-[(1R)-1-(3,5-difluorophenyl)-2-methoxyethyl]-2-(ethoxymethyl)-5-[4-(6-fluoro-2-methylpyridin-3-yl)benzenesulfonyl]-6-hydroxy-1,4-dihydropyrimidin-4-one] | 8.00 to 11.00
CCOCc1nc(=O)c(S(=O)(=O)c2ccc(-c3cccnc3C)cc2)c(O)n1[C@@H](COC)c1cc(F)cc(F)c1 [Example 386, 1-[(1R)-1-(3,5-difluorophenyl)-2-methoxyethyl]-2-(ethoxymethyl)-6-hydroxy-5-[4-(2-methylpyridin-3-yl)benzenesulfonyl]-1,4-dihydropyrimidin-4-one] | 8.00 to 11.00
CCOCc1nc(=O)c(S(=O)(=O)c2ccc(-c3ccncc3C)cc2)c(O)n1[C@@H](COC)c1cc(F)cc(F)c1 [Example 387, 1-[(1R)-1-(3,5-difluorophenyl)-2-methoxyethyl]-2-(ethoxymethyl)-6-hydroxy-5-[4-(3-methylpyridin-4-yl)benzenesulfonyl]-1,4-dihydropyrimidin-4-one] | 8.00 to 11.00
CCOCc1nc(=O)c(S(=O)(=O)c2ccc(-c3ccnc(F)c3C)cc2)c(O)n1[C@@H](COC)c1cc(F)cc(F)c1 [Example 388, 1-[(1R)-1-(3,5-difluorophenyl)-2-methoxyethyl]-2-(ethoxymethyl)-5-[4-(2-fluoro-3-methylpyridin-4-yl)benzenesulfonyl]-6-hydroxy-1,4-dihydropyrimidin-4-one] | 8.00 to 11.00
COC[C@@H](c1cccc(C#N)c1)n1c(COC(C)C)nc(=O)c(S(=O)(=O)c2ccc(-c3ccc(F)nc3C)cc2)c1O [Example 389, 3-[(1R)-1-{5-[4-(6-fluoro-2-methylpyridin-3-yl)benzenesulfonyl]-6-hydroxy-4-oxo-2-[(propan-2-yloxy)methyl]-1,4-dihydropyrimidin-1-yl}-2-methoxyethyl]benzonitrile] | 8.00 to 11.00
COC[C@@H](c1cccc(C#N)c1)n1c(COC(C)C)nc(=O)c(S(=O)(=O)c2ccc(-c3cccnc3C)cc2)c1O [Example 390, 3-[(1R)-1-{6-hydroxy-5-[4-(2-methylpyridin-3-yl)benzenesulfonyl]-4-oxo-2-[(propan-2-yloxy)methyl]-1,4-dihydropyrimidin-1-yl}-2-methoxyethyl]benzonitrile] | 8.00 to 11.00
COC[C@@H](c1cc(F)cc(F)c1)n1c(COC(C)C)nc(=O)c(S(=O)(=O)c2ccc(-c3cncc(C#N)c3)cc2)c1O [Example 391, 5-[4-({1-[(1R)-1-(3,5-difluorophenyl)-2-methoxyethyl]-6-hydroxy-4-oxo-2-[(propan-2-yloxy)methyl]-1,4-dihydropyrimidin-5-yl}sulfonyl)phenyl] pyridine-3-carbonitrile] | 8.00 to 11.00
COC[C@@H](c1cc(F)cc(F)c1)n1c(COC(C)C)nc(=O)c(S(=O)(=O)c2ccc(-c3ccccc3C(N)=O)cc2)c1O [Example 392, 4′-({1-[(1R)-1-(3,5-difluorophenyl)-2-methoxyethyl]-6-hydroxy-4-oxo-2-[(propan-2-yloxy)methyl]-1,4-dihydropyrimidin-5-yl}sulfonyl)-[1,1′-biphenyl]-2-carboxamide] | 8.00 to 11.00
COC[C@@H](c1cccc(C#N)c1)n1c(COC(C)C)nc(=O)c(S(=O)(=O)c2ccc(-c3cn(C)nc3C)cc2)c1O [Example 393, 3-[(1R)-1-{5-[4-(1,3-dimethyl-1H-pyrazol-4-yl)benzenesulfonyl]-6-hydroxy-4-oxo-2-[(propan-2-yloxy)methyl]-1,4-dihydropyrimidin-1-yl}-2-methoxyethyl]benzonitrile] | 8.00 to 11.00
COC[C@@H](c1cccc(C#N)c1)n1c(COC(C)C)nc(=O)c(S(=O)(=O)c2ccc(-c3c[nH]nc3C)cc2)c1O [Example 394, 3-[(1R)-1-{6-hydroxy-5-[4-(3-methyl-1H-pyrazol-4-yl)benzenesulfonyl]-4-oxo-2-[(propan-2-yloxy)methyl]-1,4-dihydropyrimidin-1-yl}-2-methoxyethyl]benzonitrile] | 8.00 to 11.00
COC[C@@H](c1cccc(C#N)c1)n1c(COC(C)C)nc(=O)c(S(=O)(=O)c2ccc(-c3ccnc(F)c3C)cc2)c1O [Example 395, 3-[(1R)-1-{5-[4-(2-fluoro-3-methylpyridin-4-yl)benzenesulfonyl]-6-hydroxy-4-oxo-2-[(propan-2-yloxy)methyl]-1,4-dihydropyrimidin-1-yl}-2-methoxyethyl]benzonitrile] | 8.00 to 11.00
COC[C@@H](c1cc(F)cc(F)c1)n1c(COC(C)C)nc(=O)c(S(=O)(=O)c2ccc(-c3cn(C)nc3C)cc2)c1O [Example 396, 1-[(1R)-1-(3,5-difluorophenyl)-2-methoxyethyl]-5-[4-(1,3-dimethyl-1H-pyrazol-4-yl)benzenesulfonyl]-6-hydroxy-2-[(propan-2-yloxy)methyl]-1,4-dihydropyrimidin-4-one] | 8.00 to 11.00
COC[C@@H](c1cc(F)cc(F)c1)n1c(COC(C)C)nc(=O)c(S(=O)(=O)c2ccc(-c3cnn(C)c3C)cc2)c1O [Example 397, 1-[(1R)-1-(3,5-difluorophenyl)-2-methoxyethyl]-5-[4-(1,5-dimethyl-1H-pyrazol-4-yl)benzenesulfonyl]-6-hydroxy-2-[(propan-2-yloxy)methyl]-1,4-dihydropyrimidin-4-one] | 8.00 to 11.00
COC[C@@H](c1cc(F)cc(F)c1)n1c(COC(C)C)nc(=O)c(S(=O)(=O)c2ccc(-c3ccncc3C#N)cc2)c1O [Example 398, 4-[4-({1-[(1R)-1-(3,5-difluorophenyl)-2-methoxyethyl]-6-hydroxy-4-oxo-2-[(propan-2-yIoxy)methyl]-1,4-dihydropyrimidin-5-yl}sulfonyl)phenyl] pyridine-3-carbonitrile] | 8.00 to 11.00
COC[C@@H](c1cccc(C#N)c1)n1c(COC(C)C)nc(=O)c(S(=O)(=O)c2ccc(-c3ccccc3C(N)=O)cc2)c1O [Example 399, 4′-({1-[(1R)-1-(3-cyanophenyl)-2-methoxyethyl]-6-hydroxy-4-oxo-2-[(propan-2-yloxy)methyl]-1,4-dihydropyrimidin-5-yl}sulfonyl)-[1,1′-biphenyl]-2-carboxamide] | 8.00 to 11.00
CC[C@@H](c1cccc(C#N)c1)n1c(COC(C)C)nc(=O)c(S(=O)(=O)c2ccc(-c3ccccc3C(N)=O)cc2)c1O [Example 400, 4′-({1-[(1S)-1-(3-cyanophenyl)propyl]-6-hydroxy-4-oxo-2-[(propan-2-yloxy)methyl]-1,4-dihydropyrimidin-5-yl}sulfonyl)-[1,1′-biphenyl]-2-carboxamide] | 8.00 to 11.00
CCOCc1nc(=O)c(S(=O)(=O)c2ccc(-c3ccccc3C(N)=O)c(F)c2)c(O)n1C(COC)c1cccc(F)c1 (stereo not shown) [Example 401, 4′-{[2-(ethoxymethyl)-1-[1-(3-fluorophenyl)-2-methoxyethyl]-6-hydroxy-4-oxo-1,4-dihydropyrimidin-5-yl]sulfonyl}-2′-fluoro-[1,1′-biphenyl]-2-carboxamide] | 8.00 to 11.00
COC[C@@H](c1ccccc1)n1c(COC(C)C)nc(=O)c(S(=O)(=O)c2ccc(-c3ccccc3C(N)=O)c(F)c2)c1O [Example 402, 2′-fluoro-4′-({6-hydroxy-1-[(1R)-2-methoxy-1-phenylethyl]-4-oxo-2-[(propan-2-yloxy)methyl]-1,4-dihydropyrimidin-5-yl}sulfonyl)-[1,1′-biphenyl]-2-carboxamide] | 8.00 to 11.00

Reference: patent US10508104B2, “6-hydroxy-5-(phenyl/heteroarylsulfonyl)pyrimidin-4(1H)-one as APJ agonists” (Bristol-Myers Squibb Company, priority 2016, dated 2019)
